US20230373939A1 (VERTEX PHARMACEUTICALS INCORPORATED, priority 2020, published 2023)
Read-outs that look alike come from different tables or passages of the source.

Biological target: T1, F508del in NIH 3T3 cells (Homo sapiens, UniProt P13569, DEL508-508)
T1 construct: expressed in transfected cells
Test: 3T3 assay: membrane potential optical assay for F508del correction
Assay type: cell-based
Outline: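 NIH 3T3 mouse fibroblasts stably expressing F508del were incubated with corrector compounds at a range of concentrations for 16–24 h at 37 °C, then loaded with a voltage-sensing redistribution dye. Channel activity was read as membrane-potential change on FLIPR after a single addition of forskolin with a chloride-free (gluconate) bath creating a Cl⁻ gradient.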

[1] = NIH3T3, read-out: 3T3 Max Activity (%)
[2] = NIH 3T3 cells, F508del, read-out: 3T3 EC50
[3] = NIH3T3, NIH 3T3 cells, F508del, read-out: 3T3 Max Activity (%)

T1 sequence (P13569 with tags, fused parts or gaps DEL508-508): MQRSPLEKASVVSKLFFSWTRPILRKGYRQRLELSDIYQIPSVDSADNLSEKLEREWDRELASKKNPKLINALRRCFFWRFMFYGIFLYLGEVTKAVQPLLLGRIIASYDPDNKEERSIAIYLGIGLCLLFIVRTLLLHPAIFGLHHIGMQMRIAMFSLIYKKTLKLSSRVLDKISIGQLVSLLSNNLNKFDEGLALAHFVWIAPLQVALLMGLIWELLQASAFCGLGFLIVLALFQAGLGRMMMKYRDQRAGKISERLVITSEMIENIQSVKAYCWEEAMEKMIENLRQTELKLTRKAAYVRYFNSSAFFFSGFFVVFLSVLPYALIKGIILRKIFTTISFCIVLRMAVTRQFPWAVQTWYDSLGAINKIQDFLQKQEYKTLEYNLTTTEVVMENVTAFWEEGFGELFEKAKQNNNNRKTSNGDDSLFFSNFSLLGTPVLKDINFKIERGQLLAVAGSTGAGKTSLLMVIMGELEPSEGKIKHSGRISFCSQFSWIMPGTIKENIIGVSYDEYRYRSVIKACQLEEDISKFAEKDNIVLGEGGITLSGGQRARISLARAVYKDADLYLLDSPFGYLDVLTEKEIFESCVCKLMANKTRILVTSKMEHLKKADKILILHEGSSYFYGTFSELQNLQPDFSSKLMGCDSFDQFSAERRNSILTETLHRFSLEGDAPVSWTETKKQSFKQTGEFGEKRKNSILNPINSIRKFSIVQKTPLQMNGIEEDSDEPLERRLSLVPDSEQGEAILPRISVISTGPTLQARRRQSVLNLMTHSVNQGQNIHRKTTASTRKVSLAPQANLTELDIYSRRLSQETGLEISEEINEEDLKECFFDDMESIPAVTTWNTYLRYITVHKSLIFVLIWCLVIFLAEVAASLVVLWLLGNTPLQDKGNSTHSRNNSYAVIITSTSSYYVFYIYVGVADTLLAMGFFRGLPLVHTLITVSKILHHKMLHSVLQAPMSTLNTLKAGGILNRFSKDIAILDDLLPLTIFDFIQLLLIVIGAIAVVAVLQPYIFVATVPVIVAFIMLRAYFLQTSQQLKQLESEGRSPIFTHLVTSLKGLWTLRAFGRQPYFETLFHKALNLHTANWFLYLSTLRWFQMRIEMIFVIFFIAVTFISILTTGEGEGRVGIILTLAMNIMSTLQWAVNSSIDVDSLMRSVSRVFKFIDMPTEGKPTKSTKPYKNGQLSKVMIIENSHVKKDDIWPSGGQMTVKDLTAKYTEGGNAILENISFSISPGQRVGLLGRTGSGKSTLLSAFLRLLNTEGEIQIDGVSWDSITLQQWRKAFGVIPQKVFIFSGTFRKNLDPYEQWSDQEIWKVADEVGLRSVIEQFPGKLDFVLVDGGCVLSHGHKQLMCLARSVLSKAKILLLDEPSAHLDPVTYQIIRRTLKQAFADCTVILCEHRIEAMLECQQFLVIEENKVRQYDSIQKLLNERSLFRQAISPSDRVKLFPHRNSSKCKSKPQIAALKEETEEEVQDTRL

EC50 [2] [µM]	Emax [3] [%]	SMILES	Emax [1] [%]	EC50 [µM]
	< 30	Cc1nc(NS(=O)(=O)c2ccccc2)sc1C [Compound 46, N-(4,5-dimethylthiazol-2-yl)benzenesulfonamide]		
< 1	> 60	O=S(=O)(Nc1cc(-c2ccccc2)cc(Oc2ccccc2)n1)c1ccccc1 [Compound 142, N-(6-phenoxy-4-phenyl-2-pyridyl)benzenesulfonamide]		
3 to 30	30 to 60	Cc1sc(NS(=O)(=O)c2ccccc2)nc1-c1ccc2c(c1)OCCO2 [Compound 22, N-[4-(2,3-dihydro-1,4-benzodioxin-6-yl)-5-methyl-thiazol-2-yl]benzenesulfonamide]		
		COc1cccc(-c2cc(NS(=O)(=O)c3ccccc3)nn2-c2c(C)cc(C)cc2C)c1 [Compound 50, N-[5-(3-methoxyphenyl)-1-(2,4,6-trimethylphenyl)pyrazol-3-yl]benzenesulfonamide]	> 60	1 to 3
	< 30	CCCc1nc(NS(=O)(=O)c2ccccc2)sc1C [Compound 47, N-(5-methyl-4-propyl-thiazol-2-yl)benzenesulfonamide]		
1 to 3	> 60	C/C=C/c1ccc(NS(=O)(=O)c2ccccc2)nc1-c1ccc(C)cc1 [Compound 148]		
	< 30	CC(C)(C)c1nc(NS(=O)(=O)c2ccccc2)sc1C#N [Compound 45, N-(4-tert-butyl-5-cyano-thiazol-2-yl)benzenesulfonamide]		
3 to 30	> 60	Cc1cc(C)cc(-c2nc(NS(=O)(=O)c3ccccc3)ccc2C)c1 [Compound 149]		
1 to 3	> 60	Cc1cc(C)c(-n2nc(NS(=O)(=O)c3ccccc3)cc2C2=CCCCC2)c(C)c1 [Compound 63, N-[5-(cyclohexen-1-yl)-1-(2,4,6-trimethylphenyl)pyrazol-3-yl]benzenesulfonamide]		
	30 to 60	O=S(=O)(Nc1ncc(Cc2ccccc2)s1)c1ccccc1 [Compound 32, N-[5-benzyl-thiazol-2-yl]benzenesulfonamide]		
1 to 3	30 to 60	COc1ccccc1-c1cn(-c2cccc(Cl)c2)nc1NS(=O)(=O)c1ccccc1 [Compound 92, N-[1-(3-chlorophenyl)-4-(2-methoxyphenyl)pyrazol-3-yl]benzenesulfonamide]		
	< 30	C=C(C)c1cn(Cc2ccccc2)nc1NS(=O)(=O)c1ccccc1 [Compound 105, N-(1-benzyl-4-isopropenyl-pyrazol-3-yl)benzenesulfonamide]		
1 to 3	30 to 60	O=S(=O)(Nc1cc(OCc2ccccc2)nc(-c2ccccc2)n1)c1ccccc1 [Compound 132, N-(6-benzyloxy-2-phenyl-pyrimidin-4-yl)benzenesulfonamide]		
	30 to 60	Nc1cccc(S(=O)(=O)Nc2nn(-c3ccccc3)cc2Cc2ccccc2)c1 [Compound 73, 3-amino-N-(4-benzyl-1-phenyl-pyrazol-3-yl)benzenesulfonamide]		
< 1	> 60	Cc1cc(C)c(-n2nc(NS(=O)(=O)c3ccccc3)cc2-c2cccc(Cl)c2)c(C)c1 [Compound 57, N-[5-(3-chlorophenyl)-1-(2,4,6-trimethylphenyl)pyrazol-3-yl]benzenesulfonamide]		
	< 30	COCCNC(=O)c1sc(NS(=O)(=O)c2ccccc2)nc1-c1ccccc1 [Compound 35, 2-(benzenesulfonamido)-N-(2-methoxyethyl)-4-phenyl-thiazole-5-carboxamide]		
	< 30	CCCN(C)C(=O)c1sc(NS(=O)(=O)c2ccccc2)nc1-c1ccccc1 [Compound 38, 2-(benzenesulfonamido)-N-methyl-4-phenyl-N-propyl-thiazole-5-carboxamide]		
1 to 3	> 60	Cc1ccc(NS(=O)(=O)c2ccccc2)nc1-c1cccc(C)c1C [Compound 137, N-[6-(2,3-Dimethylphenyl)-5-methyl-2-pyridyl]benzenesulfonamide]		
	< 30	COc1ccccc1Cc1cnc(NS(=O)(=O)c2ccccc2)o1 [Compound 4, N-[5-[(2-methoxyphenyl)methyl]oxazol-2-yl]benzenesulfonamide]		
3 to 30	30 to 60	COC(=O)Cc1nc(NS(=O)(=O)c2ccccc2)sc1-c1ccccc1 [Compound 40, methyl 2-[2-(benzenesulfonamido)-5-phenyl-thiazol-4-yl]acetate]		

EC50 [2] [µM]	Emax [3] [%]	SMILES	Emax [1] [%]	EC50 [µM]
1 to 3	> 60	O=S(=O)(Nc1cc(Oc2ccccc2)cc(Oc2ccccc2)n1)c1ccccc1 [Compound 133, N-(4,6-Diphenoxy-2-pyridyl)benzenesulfonamide]		
1 to 3	> 60	O=S(=O)(Nc1cc(Oc2ccccc2)cc(-c2ccccc2)n1)c1ccccc1 [Compound 136, N-(4-phenoxy-6-phenyl-2-pyridyl)benzenesulfonamide]		
1 to 3	> 60	CCCc1sc(NS(=O)(=O)c2ccccc2)nc1-c1ccc(OC)cc1 [Compound 20, N-[4-(4-methoxyphenyl)-5-propyl-thiazol-2-yl]benzenesulfonamide]		
		O=S(=O)(Nc1nn(-c2cccc(Cl)c2)cc1-c1cccc(Cl)c1)c1ccccc1 [Compound 70, N-[1,4-bis(3-chlorophenyl)pyrazol-3-yl]benzenesulfonamide]	30 to 60	< 1
	< 30	Cn1cc(S(=O)(=O)Nc2nn(-c3ccccc3)cc2Cc2ccccc2)cn1 [Compound 72, N-(4-benzyl-1-phenyl-pyrazol-3-yl)-1-methyl-pyrazole-4-sulfonamide]		
3 to 30	30 to 60	COc1ccccc1Nc1nc(-c2sc(NS(=O)(=O)c3ccccc3)nc2C)cs1 [Compound 29, N-[5-[2-(2-methoxyanilino)thiazol-4-yl]-4-methyl-thiazol-2-yl]benzenesulfonamide]		
3 to 30	> 60	Cc1cccc(-c2nc(NS(=O)(=O)c3ccccc3)cc(C)c2C)c1C [Compound 158]		
	< 30	Cc1cccc(-c2cn(Cc3ccccc3)nc2NS(=O)(=O)c2ccccc2)c1 [Compound 114, N-[1-benzyl-4-(m-tolyl)pyrazol-3-yl]benzenesulfonamide]		
3 to 30	30 to 60	CC(C)(C)CCNC(=O)c1sc(NS(=O)(=O)c2ccccc2)nc1-c1ccccc1 [Compound 15, 2-(benzenesulfonamido)-N-(3,3-dimethylbutyl)-4-phenyl-thiazole-5-carboxamide]		
1 to 3	> 60	Cc1ccc(C)c(-c2nc(NS(=O)(=O)c3ccccc3)ccc2C)c1 [Compound 138, N-[6-(2,5-Dimethylphenyl)-5-methyl-2-pyridyl]benzenesulfonamide]		
1 to 3	> 60	Cc1cc(C)cc(-c2nc(NS(=O)(=O)c3ccccc3)cc(C)c2C)c1 [Compound 155]		
1 to 3	30 to 60	O=S(=O)(Nc1cc(-c2ccccc2)nc(Oc2ccccc2)n1)c1ccccc1 [Compound 130, N-(2-phenoxy-6-phenylpyrimidin-4-yl)benzenesulfonamide]		
	< 30	Cc1cc(C)c(-n2cc(Br)c(NS(=O)(=O)c3ccccc3)n2)c(C)c1 [Compound 99, N-[4-bromo-1-(2,4,6-trimethylphenyl)pyrazol-3-yl]benzenesulfonamide]		
	< 30	O=S(=O)(Nc1nn(Cc2ccccc2)cc1C1=CCCCC1)c1ccccc1 [Compound 106, N-[1-benzyl-4-(cyclohexen-1-yl)pyrazol-3-yl]benzenesulfonamide]		
	< 30	O=S(=O)(Nc1nc(C2CC2)cs1)c1ccccc1 [Compound 12, N-(4-cyclopropylthiazol-2-yl)benzenesulfonamide]		
	30 to 60	O=S(=O)(Nc1nn(Cc2ccccc2)cc1-c1ccc(Cl)cc1)c1ccccc1 [Compound 108, N-[1-benzyl-4-(4-chlorophenyl)pyrazol-3-yl]benzenesulfonamide]		
	< 30	O=S(=O)(Nc1n[nH]cc1-c1ccccc1)c1ccccc1 [Compound 77, N-(4-phenyl-1H-pyrazol-3-yl)benzenesulfonamide]		
	< 30	O=C(c1sc(NS(=O)(=O)c2ccccc2)nc1-c1ccccc1)N1CCCCC1 [Compound 34, N-[4-phenyl-5-(piperidine-1-carbonyl)thiazol-2-yl]benzenesulfonamide]		
	< 30	Cc1cc(C)c(-n2cc(C(C)C)c(NS(=O)(=O)c3ccccc3)n2)c(C)c1 [Compound 98]		

SMILES	EC50 [2] [µM]	Emax [3] [%]	Emax [1] [%]	EC50 [µM]
COc1ccccc1C1(c2cnc(NS(=O)(=O)c3ccccc3)s2)CC1 [Compound 25, N-[5-[1-(2-methoxyphenyl)cyclopropyl]thiazol-2-yl]benzenesulfonamide]	3 to 30		> 60	
CCCc1sc(NS(=O)(=O)c2ccccc2)nc1-c1ccc(C)cc1C [Compound 6, N-[4-(2,4-dimethylphenyl)-5-propyl-thiazol-2-yl]benzenesulfonamide]	< 1		> 60	
CCCc1oc(NS(=O)(=O)c2ccccc2)nc1-c1ccccc1 [Compound 2, N-(4-phenyl-5-propyl-oxazol-2-yl)benzenesulfonamide]	3 to 30		30 to 60	
Cc1nc(NS(=O)(=O)c2ccccc2)sc1-c1ccccc1 [Compound 26, N-(4-methyl-5-phenyl-thiazol-2-yl)benzenesulfonamide]	1 to 3		> 60	
Cc1cc(C)c(-n2nc(NS(=O)(=O)c3ccccc3)cc2-c2ccc(Oc3ccccc3)cc2)c(C)c1 [Compound 49, N-[5-(4-phenoxyphenyl)-1-(2,4,6-trimethylphenyl)pyrazol-3-yl]benzenesulfonamide]	< 1		30 to 60	
COc1ccc(Cl)cc1Nc1nc(-c2sc(NS(=O)(=O)c3ccccc3)nc2C)cs1 [Compound 27, N-[5-[2-(5-chloro-2-methoxy-anilino)thiazol-4-yl]-4-methyl-thiazol-2-yl]benzenesulfonamide]	1 to 3		30 to 60	
